The numbers were not newly measured in patent publication US4873075A, “Polyiodinated triglyceride analogs as radiologic agents” (The University of Michigan, priority 1985, dated 1989), which cites them from elsewhere.

This data set concerns liver. To be noted: background statement.

As to “tetraiodotetrachlorofluorescein [^131 I-Rose Bengal]”, the “hepatic to intestinal output” value was “slow rate of hepatic to intestinal output”.
